Measured values published in patent US9044476B2, “Use of uraria in promoting osteogenesis or providing neuroprotection” (TAIPEI MEDICAL UNIVERSITY, priority 2013, dated 2015).

Assays:
Type in all cases: cell-based, human
HOb cells [1] = test: Alkaline phosphatase (ALP) assay in HOb cells; conditions: compounds 100 μM, 72 h
Experimental: (§1) HOb cells were seeded in 96-well plates. Twenty-four hours after plating, the old medium was discarded and the cells were treated with tested extracts (100 μg/ml) in Osteoblast Differentiation Medium for 72 h. ALP activity was assessed using the p-nitrophenyl phosphate disodium substrate. Data are shown as mean±SD (n=3). *P<0.05 and **P<0.01 as compared with control (n=3).
as §1, with “compounds” for “extracts”, “μM)” for “μg/ml)”
(§2) Human osteoblasts (HOb) were primary cells derived from a person from a normal femoral bone and obtained from Cell Applications (San Diego, Calif., USA). HOb cells were grown in Osteoblast Growth Medium and maintained at 37° C. in 5% CO2 humidified atmosphere. The medium was changed every other day. To maintain exponential growth, the cells were subcultured every 7 days. HOb cells were used for cell viability, differentiation, and mineralization assays.
The alkaline phosphatase (ALP) activities of U. crinita extract and its constituents were measured with p-nitrophenyl phosphate as the substrate. HOb cells were seeded in 96-well plates at a density of 4×10^3 cells per well. Twenty-four hours after plating, the old medium was discarded and the cells were treated with tested extracts or compounds in Osteoblast Differentiation Medium. After 72 hours incubation, the medium was discarded and the cells rinsed twice with cold PBS, and cells were lysed with lysis buffer (PBS containing 0.1% Triton X-100). The cellular protein concentration in supernatant was determined after incubation with BCA (bicinchoninic acid) protein reagent for 1 hour at 37° C. The reaction was stopped by adding 1M NaOH, and absorbance measured at 560 nm. Furthermore, the ALP activity in supernatant was assayed by incubation for 1 hour at 37° C. in 0.1 M NaHCO3—Na2CO3 buffer, pH 10, containing 0.1% Triton X-100, 2 mM MgSO4, and 6 mM p-nitrophenyl phosphate. The reaction was stopped by adding 1M NaOH and absorbance was measured at 405 nm. Each value was normalized to the protein concentration.

HOb cells [2] = test: Mineralized matrix formation assay (Alizarin Red-S) in HOb cells; conditions: for formation of mineralized bone nodules: compounds 100 μM, 12 days
Experimental: (§3) HOb cells were plated in 24-well plates. Three days after plating, the old medium was discarded and the cells were treated with tested extracts (100 μg/ml) in mineralizing media (Osteoblast Differentiation Medium containing ascorbic acid (50 μg/ml) and β-glycerophosphate (10 mM) for 12 days. At the end of experiment, cultures were fixed in 75% ethanol, and mineralized nodule formation was assessed by Alizarin Red-S staining. The bound staining was eluted with a solution of 10% cetylpyridinium chloride and quantified using a microtiter plate reader. Data are shown as mean±SD (n=3). *P<0.05 and **P<0.01 as compared with control (n=3).
as §3, with “tested compounds” for “tested extracts”, “(100 μM)” for “(100 μg/ml)”, “Differentiation Medium)” for “Differentiation Medium”
as §2
The mineralization activities of U. crinita extract and its constituents were measured by Alizarin Red-S staining of calcium. HOb cells were seeded in 24-well plates at a density of 7×10^4 cells per well. Three days after plating, the old medium was discarded and the cells were treated with tested extracts or compounds in mineralizing media (Osteoblast Differentiation Medium) containing ascorbic acid (50 μg/ml) and β-glycerophosphate (10 mM) for 12 days. At the end of experiment, cultures were fixed in 75% ethanol, and calcium deposits were stained for 15 minutes at room temperature with Alizarin Red-S solution (40 mM, pH 4.2). The bound staining was eluted with a solution of 10% (w/v) cetylpyridinium chloride in 10 mM sodium phosphate (pH 7.0) and quantified using a ELISA reader at 550 nm.

HOb cells [3] = test: Cell viability (MTT) assay in HOb cells; conditions: 100 μM, 72 hours
Experimental: as §1, with “compounds” for “extracts”, “μM)” for “μg/ml)”, “Cell viability” for “ALP activity”, “MTT assay.” for “p-nitrophenyl phosphate disodium substrate.”
as §2, with “HOb cells were used for cell viability, differentiation, and mineralization assays.” left out
The cell viability of U. crinita extract and its constituents were determined using the MTT assay as described elsewhere (Scudiero et al., 1988). […] The absorbance at 600 nm was recorded using an ELISA reader. […]

Row | SMILES | ALP activity (HOb cells [1]) | formation of mineralized bone nodules (HOb cells [2]) | mineralization activity, ranking in words (HOb cells [2]; isolated compounds, 100 μM) | cell viability (HOb cells [3])
1 | Nc1ncnc2c1ncn2[C@@H]1O[C@H](CO)[C@@H](O)[C@H]1O [Compound 7, adenosine] | 108.70±4.14% | 125.21±3.75% | – | –
2 | O=C1c2c(O)cc(O)cc2OCC1c1ccc(O)cc1O (stereo not shown) [Compound 1, dalbergioidin] | 114.10±4.41% | 107.09±2.80% | – | –
3 | O=c1cc(-c2ccc(O)cc2)oc2cc(O)c(C3OCC(O)C(O)C3OC3OCC(O)(CO)C3O)c(O)c12 (stereo not shown) [Compound 3] | 109.68±2.20% | 150.10±0.80% | most potent mineralization activity | –
4 | CC1=CC(=O)CC(C)(C)[C@H]1CC[C@@H](C)O[C@@H]1O[C@H](CO)[C@@H](O)[C@H](O)[C@H]1O [Compound 9, byzantionoside B] | 114.81±0.18% | 129.21±6.13% | – | –
5 | N[C@@H](Cc1c[nH]c2ccccc12)C(=O)O [Compound 5, tryptophan] | – | – | – | 80.43±1.11%
